In ChEMBL document CHEMBL4308906, “Design and synthesis of selective CYP1B1 inhibitor via dearomatization of α-naphthoflavone” (Bioorg Med Chem, 2019):
pIC50, pKd: −log10 of the molar value. In brackets after ≈: the same amount, converted by molar mass.

Columns and labels:
Cytochrome P450 1B1 [1] = target: T1, Cytochrome P450 1B1 (Homo sapiens, UniProt Q16678); assay: Inhibition of human recombinant CYP1B1 using 7-ethoxyresorufin as substrate assessed as percent enzyme activity at 1 uM after 30 mins in presence of NADPH by EROD assay relative to control; set-up: scale not given: the % may be the effect or the level left; conditions: read-out: Activity
T1 sequence (Q16678 whole entry): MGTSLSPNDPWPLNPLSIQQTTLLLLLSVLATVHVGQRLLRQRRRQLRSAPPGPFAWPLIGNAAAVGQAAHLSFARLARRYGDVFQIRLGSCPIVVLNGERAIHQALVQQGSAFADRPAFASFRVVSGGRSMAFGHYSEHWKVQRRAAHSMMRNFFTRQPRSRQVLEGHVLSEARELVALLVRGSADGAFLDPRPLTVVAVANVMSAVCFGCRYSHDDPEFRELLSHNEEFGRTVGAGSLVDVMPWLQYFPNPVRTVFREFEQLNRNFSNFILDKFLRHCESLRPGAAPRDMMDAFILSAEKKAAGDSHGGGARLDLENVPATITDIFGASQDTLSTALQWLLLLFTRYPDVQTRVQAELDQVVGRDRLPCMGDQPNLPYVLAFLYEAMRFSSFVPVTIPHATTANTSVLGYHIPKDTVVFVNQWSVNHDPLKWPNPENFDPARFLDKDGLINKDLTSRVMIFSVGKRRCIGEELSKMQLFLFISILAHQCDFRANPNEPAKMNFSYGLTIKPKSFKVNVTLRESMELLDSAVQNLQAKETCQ

CYP1A1 = target: T2, CYP1A1 (Homo sapiens, UniProt P04798); assay: Inhibition of human recombinant CYP1A1 using 7-ethoxyresorufin as substrate assessed as percent enzyme activity at 1 uM after 15 mins in presence of NADPH by EROD assay relative to control; assay type: ADME; set-up: scale not given: the % may be the effect or the level left; conditions: recombinant CYP1A1, probe 7-ethoxyresorufin, read-out: Activity
T2 sequence (P04798 whole entry): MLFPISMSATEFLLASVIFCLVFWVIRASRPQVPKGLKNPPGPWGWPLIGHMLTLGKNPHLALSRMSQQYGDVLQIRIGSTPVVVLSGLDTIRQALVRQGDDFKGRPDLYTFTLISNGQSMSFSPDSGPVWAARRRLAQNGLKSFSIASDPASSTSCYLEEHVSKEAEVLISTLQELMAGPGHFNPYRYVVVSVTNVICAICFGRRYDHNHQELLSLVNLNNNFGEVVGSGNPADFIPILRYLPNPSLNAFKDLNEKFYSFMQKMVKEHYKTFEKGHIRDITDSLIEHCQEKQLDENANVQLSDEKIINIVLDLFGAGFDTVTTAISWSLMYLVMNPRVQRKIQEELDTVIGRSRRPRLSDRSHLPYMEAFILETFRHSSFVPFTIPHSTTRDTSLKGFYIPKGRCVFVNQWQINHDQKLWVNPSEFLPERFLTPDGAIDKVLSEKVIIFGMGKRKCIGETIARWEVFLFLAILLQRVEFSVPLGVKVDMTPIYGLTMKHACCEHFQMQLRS

CYP1A2 = target: T3, CYP1A2 (Homo sapiens, UniProt P05177); assay: Inhibition of human recombinant CYP1A2 using 7-ethoxyresorufin as substrate assessed as percent enzyme activity at 1 uM after 30 mins in presence of NADPH by EROD assay relative to control; assay type: ADME; set-up: scale not given: the % may be the effect or the level left; conditions: recombinant CYP1A2, probe 7-ethoxyresorufin, read-out: Activity
T3 sequence (P05177 whole entry): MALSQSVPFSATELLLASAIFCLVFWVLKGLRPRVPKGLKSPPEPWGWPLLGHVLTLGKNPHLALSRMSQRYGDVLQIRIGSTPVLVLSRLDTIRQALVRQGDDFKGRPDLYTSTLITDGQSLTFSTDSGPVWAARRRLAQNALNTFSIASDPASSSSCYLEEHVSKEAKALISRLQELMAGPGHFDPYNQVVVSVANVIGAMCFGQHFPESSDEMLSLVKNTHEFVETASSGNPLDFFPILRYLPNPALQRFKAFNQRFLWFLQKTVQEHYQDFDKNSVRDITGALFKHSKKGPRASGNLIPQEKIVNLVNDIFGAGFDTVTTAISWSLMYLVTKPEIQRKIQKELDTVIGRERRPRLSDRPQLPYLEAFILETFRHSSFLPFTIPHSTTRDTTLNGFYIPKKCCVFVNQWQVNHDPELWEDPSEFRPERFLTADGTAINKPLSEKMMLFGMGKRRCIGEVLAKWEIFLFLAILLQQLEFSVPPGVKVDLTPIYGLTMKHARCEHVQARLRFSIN

Cytochrome P450 1B1 [2] = target: T1, Cytochrome P450 1B1; assay: Inhibition of human recombinant CYP1B1 using 7-ethoxyresorufin as substrate after 30 mins in presence of NADPH by EROD assay
Cytochrome P450 1A1 = target: T4, Cytochrome P450 1A1 (Homo sapiens, UniProt P04798); assay: Inhibition of human recombinant CYP1A1 using 7-ethoxyresorufin as substrate after 15 mins in presence of NADPH by EROD assay; assay type: ADME
T4 sequence (P04798 whole entry): T2 sequence (P04798 whole entry)

Cytochrome P450 1A2 = target: T5, Cytochrome P450 1A2 (Homo sapiens, UniProt P05177); assay: Inhibition of human recombinant CYP1A2 using 7-ethoxyresorufin as substrate after 30 mins in presence of NADPH by EROD assay; assay type: ADME
T5 sequence (P05177 whole entry): T3 sequence (P05177 whole entry)

Homo sapiens [3] = organism: Homo sapiens; assay: Selectivity ratio of IC50 for human recombinant CYP1A1 to IC50 for human recombinant CYP1B1
Homo sapiens [4] = organism: Homo sapiens; assay: Selectivity ratio of IC50 for human recombinant CYP1A2 to IC50 for human recombinant CYP1B1
Cytochrome P450 1B1 [5] = target: T1, Cytochrome P450 1B1; assay: Binding affinity to human C-terminal 4His-tagged CYP1B1 expressed in Escherichia coli DH5alpha assessed as spectral dissociation constant by spectrophotometric analysis; conditions: read-out: Ks
[6] = Aqueous solubility of compound in 9:1 PBS/ethanol buffer by shake flask method; assay type: physicochemical
[7] = Solubility of compound in pH 7.4 PBS by shake flask met; assay type: physicochemical; conditions: buffer

SMILES	activity at 0.5 h, 1 µM (Cytochrome P450 1B1 [1]) [%]	activity at 0.25 h, 1 µM (CYP1A1) [%]	activity at 0.5 h, 1 µM (CYP1A2) [%]	pIC50 (Cytochrome P450 1B1 [2])	pIC50 (Cytochrome P450 1A1)	pIC50 (Cytochrome P450 1A2)	Ratio IC50 (Homo sapiens [3])	Ratio IC50 (Homo sapiens [4])	pKd (Cytochrome P450 1B1 [5])	solubility thermodynamic [6] [µM]	solubility [7]
O=c1cc(-c2ccc(O)cc2)oc2c1ccc1ccccc12	3.7	6.3	10.4	7.36	7.37	6.04	0.99	21	–	–	–
CC(=O)S[C@H]1CC[C@@H](c2cc(=O)c3ccc4ccccc4c3o2)CC1	-1.3	3.8	42.7	7.61	7.19	–	2.7	–	5.40	–	–
[N-]=[N+]=NCC1CCC(c2cc(=O)c3ccc4ccccc4c3o2)CC1 (mixture of isomers)	2.2	6.3	22.3	7.63	6.67	6.36	9.2	18.5	5.41	–	–
[N-]=[N+]=N[C@H]1CC[C@H](c2cc(=O)c3ccc4ccccc4c3o2)CC1	-1.8	39.5	46.5	6.87	5.98	5.92	7.7	8.8	5.27	–	–
C=C=C[C@H]1CC[C@H](c2cc(=O)c3ccc4ccccc4c3o2)CC1	-0.4	3	-4.5	7.87	7.87	7.44	1.02	2.7	5.62	–	–
C=C=C[C@H]1CC[C@@H](c2cc(=O)c3ccc4ccccc4c3o2)CC1	3.1	5.5	4.3	7.17	7.48	–	0.48	–	4.60	–	–
O=c1cc([C@H]2CC[C@H](S)CC2)oc2c1ccc1ccccc12	1.8	1.3	0.6	7.39	6.84	6.16	3.6	17.1	5.05	–	–
CC(=O)S[C@H]1CC[C@H](c2cc(=O)c3ccc4ccccc4c3o2)CC1	-4.7	1.1	45.4	7.53	7.80	6.00	0.54	33.7	5.17	–	–
O=c1cc(C2CCCCC2)oc2c1ccc1ccccc12	25.4	51.5	51.8	6.27	–	–	–	–	5.23	9.65 (≈ 2.69 µg/mL)	–
[N-]=[N+]=N[C@H]1CC[C@@H](c2cc(=O)c3ccc4ccccc4c3o2)CC1	-15.3	39.6	29.6	8.36	6.28	6.18	120	153	5.59	2.67 (≈ 0.853 µg/mL)	–
[N-]=[N+]=Nc1ccc(-c2cc(=O)c3ccc4ccccc4c3o2)cc1	-0.5	2.3	-13.6	8.59	8.02	7.03	3.6	35.6	6.05	< 1	–
[N-]=[N+]=Nc1cccc(-c2cc(=O)c3ccc4ccccc4c3o2)c1	0.7	1.4	6.9	8.74	7.57	7.13	15.5	42.8	6.10	–	–
O=c1cc(-c2ccccc2)oc2c1ccc1ccccc12 [ALPHA-NAPHTHOFLAVONE]	-11.3	0.4	-10.1	–	7.27	–	–	–	–	2.63 (≈ 0.716 µg/mL)	Insoluble
